Data published in article PMC11537071, “Identification and characterization of a carbohydrate recognition domain-like region in Entamoeba histolytica Gal/GalNAc lectin intermediate subunit” (Microbiology Spectrum, 2024).

Experiments:
Igl-C3 = biological target: T1, Igl-C3 (Entamoeba histolytica, UniProt Q964D2); assay: competition with FITC-PNA on Caco-2 cells; hemagglutination inhibition; type: cell-based; details: 60 mM sugar, 300 nM protein, on ice; also hemagglutination of human group O erythrocytes
T1 construct: gene igl1; CRD-like region, residues 989-1,088 (100 aa), His-tagged, pET-19b, E. coli BL21 Star(DE3)pLysS
T1 sequence (Q964D2 entry or part of it): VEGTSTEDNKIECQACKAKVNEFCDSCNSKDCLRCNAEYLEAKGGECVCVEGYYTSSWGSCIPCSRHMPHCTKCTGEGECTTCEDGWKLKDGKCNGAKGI

Igl-C = biological target: T2, Igl-C (Entamoeba histolytica, UniProt Q964D2); assay: competition with FITC-PNA on Caco-2 cells; type: cell-based; details: 60 mM sugar, 300 nM protein, on ice
T2 construct: gene igl1; C-terminal segment, 486 aa (contains Igl-C0 to C3, ends at about residue 1,088), His-tagged, pET-19b, E. coli BL21 Star(DE3)pLysS
T2 sequence (Q964D2 entry or part of it): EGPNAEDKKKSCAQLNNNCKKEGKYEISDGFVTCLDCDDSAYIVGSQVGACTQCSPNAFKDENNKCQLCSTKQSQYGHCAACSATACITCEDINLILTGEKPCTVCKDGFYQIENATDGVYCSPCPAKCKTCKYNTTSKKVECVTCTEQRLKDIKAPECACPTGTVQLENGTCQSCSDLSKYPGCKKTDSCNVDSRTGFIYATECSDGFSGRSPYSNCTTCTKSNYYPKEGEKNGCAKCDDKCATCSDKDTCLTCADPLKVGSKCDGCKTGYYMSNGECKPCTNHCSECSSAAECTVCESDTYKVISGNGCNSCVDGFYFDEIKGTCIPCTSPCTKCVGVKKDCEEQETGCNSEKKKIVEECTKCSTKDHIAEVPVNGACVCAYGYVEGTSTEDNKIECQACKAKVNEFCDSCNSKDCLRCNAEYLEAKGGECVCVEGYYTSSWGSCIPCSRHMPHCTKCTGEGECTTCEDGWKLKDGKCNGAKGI

| Structure (SMILES) | competition with FITC-PNA on Caco-2 cells; hemagglutination inhibition (Igl-C3) | competition with FITC-PNA on Caco-2 cells (Igl-C) |
| --- | --- | --- |
| CC(=O)N[C@H]1C(O)O[C@H](CO)[C@H](O)[C@@H]1O (stereo partly drawn) [GalNAc, N-acetyl-D-galactosamine] | only Igl-C3 exhibited obvious hemagglutinating activity, which could be inhibited by Gal/GalNAc | this competitive process could in turn be weakened by the addition of Gal and GalNAc |
| OC[C@H]1OC(O)[C@H](O)[C@@H](O)[C@H]1O (stereo partly shown) [Gal, galactose] | only Igl-C3 exhibited obvious hemagglutinating activity, which could be inhibited by Gal/GalNAc | this competitive process could in turn be weakened by the addition of Gal and GalNAc |
